The results in this text go back to patent US11059787B2, “Crystalline form of lenvatinib mesylate and methods thereof” (Shenzhen Bolan Pharmaceutical Co., LTD., priority 2019, dated 2021).

A short description of data set [1]: Solubility in water with 1% polyvinyl alcohol. The format is physicochemical. Conditions: solids added until not completely dissolved, in suspension for 5 hours, methanesulfonate. Here is the method: The solubility of Form XI was measured as compared to the previously reported Form A and Form C in U.S. Pat. No. 7,612,208. Form XI, Form A and Form C solids were gradually added into water with 1% polyvinyl alcohol until the solids could not dissolve completely and stay in suspension for 5 hours.

Data set [2] is described as follows: Storage stability of the crystalline form for 15 days, compared by XRPD. The format is physicochemical. Conditions: stored 15 days at 8° C., 25° C., 25° C./92.5% RH, 25° C./4500 LUX and 40° C./75% RH; XRPD comparison. Here is the method:
The stability of Form XI was measured after being stored for 15 days under the following conditions: 8° C., 25° C., 25° C./92.5% RH, 25° C./4500 LUX and 40° C./75% RH.

A further data set can be described thus: in vivo. Conditions: BALB/c, mouse, po.

For `COc1cc2nccc(Oc3ccc(NC(=O)NC4CC4)c(Cl)c3)c2cc1C(N)=O.CS(=O)(=O)O` [Form XI, 4-(3-chloro-4-(cyclopropylaminocarbonyl)aminophenoxy)-7-methoxy-6-quinolinecarboxamide methanesulfonate], the Solubility in data set [1] worked out at 26.65 mg/mL. The “Stability under storage conditions” value in data set [2] is given as “stable”. Also, in “in vivo”, the AUC(0-inf) was 38900 ± 11100 ng·h/mL, the peak concentration (Cmax) is 11500 ± 2920 ng/mL, the Tmax was 0.833 h and the bioavailability worked out at 109%. The molecule further gave a half-life in “in vivo” of 1.95 ± 0.04 h.

Consider `COc1cc2nccc(Oc3ccc(NC(=O)NC4CC4)c(Cl)c3)c2cc1C(N)=O.CS(=O)(=O)O` [Form A, 4-(3-chloro-4-(cyclopropylaminocarbonyl)aminophenoxy)-7-methoxy-6-quinolinecarboxamide methanesulfonate], for which the Solubility in data set [1] is reported as 11.75 mg/mL.

Turning to `COc1cc2nccc(Oc3ccc(NC(=O)NC4CC4)c(Cl)c3)c2cc1C(N)=O.CS(=O)(=O)O` [Form C, 4-(3-chloro-4-(cyclopropylaminocarbonyl)aminophenoxy)-7-methoxy-6-quinolinecarboxamide methanesulfonate], in data set [1], the Solubility was found to be 16.175 mg/mL.

A word on the Solubility: it is the dissolved amount per volume that the medium holds. The AUC(0-inf) is total exposure, with the tail of the curve extrapolated. Read a low AUC(0-inf) as less exposure. What is called Cmax is the peak of the concentration-time curve. One may read the Tmax as the time at which the peak concentration occurs. For orientation: half-life means the time in which the quantity being followed falls by half. Higher therefore signals slow decline.
